The record followed here is US5756423A, “Method of controlling plants by inhibition of farnesyl pyrophosphate synthase” (Zeneca Limited, priority 1997, dated 1998).

Read-outs that look alike come from different tables or passages of the source.

In test [1] the test system is wild mustard (Brassica kaber), also known as Sinapis arvensis (SINAR). The experiment in a line: post-emergent herbicidal test, wild mustard. The test is classed as in vivo. The conditions noted are these: Brassica, post-emergence, read-out: SINAR percent control. A digest of the protocol:
(§1)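 Seedlings grown in sandy loam in a greenhouse (29/21 °C day/night, 14 h light) were sprayed post-emergence at 1 or 4 kg/ha in water with 0.5% Tween 20; grasses at 3–4 leaf, broadleaves at 1–2 leaf. Percent control versus untreated flats (0–100%) was rated 17–21 days later.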

Test [2] has as its system velvetleaf (Abutilon theophrasti) (ABUTH). The experiment in a line: post-emergent herbicidal test, velvetleaf. The test is classed as in vivo. The conditions noted are these: Abutilon theophrasti, post-emergence, read-out: ABUTH percent control. The procedure, abridged:
as §1

Test [3] deals with wild oat (Avena fatua) (AVEFA). The experiment in a line: post-emergent herbicidal test, wild oat. The test is classed as in vivo. The conditions noted are these: Avena fatua, post-emergence, read-out: AVEFA percent control. A digest of the protocol: as §1
The subject of test [4] is barnyard grass (Enchinochloa crusgalli) (ECHCG). The test is described as follows: post-emergent herbicidal test, barnyard grass. The test is classed as in vivo. The note with it: Echinochloa crus-galli, post-emergence, read-out: ECHCG percent control. A digest of the protocol:
as §1

The subject of test [5] is green foxtail (Setaria viridis) (SETVI). The experiment in a line: post-emergent herbicidal test, green foxtail. The test is classed as in vivo. The conditions noted are these: Setaria viridis, post-emergence, read-out: SETVI percent control. The procedure, abridged:
as §1

In test [6] the test system is yellow nutsedge (Cyperus esculentus) (CYPES). The test is described as follows: post-emergent herbicidal test, yellow nutsedge. The conditions noted are these: Cyperus, post-emergence, read-out: CYPES percent control. The test is classed as in vivo. A digest of the protocol:
as §1

Test [7] has as its system farnesyl pyrophosphate synthase in daffodil chromoplasts. The test is described as follows: inhibition of farnesyl pyrophosphate synthase in daffodil chromoplasts (14C-isopentenyl pyrophosphate incorporation). The note with it: unit inferred, IC50 values in nM, read-out: IC50. The test is classed as biochemical, Narcissus pseudonarcissus. A digest of the protocol: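 Daffodil chromoplasts in pH 7.7 sucrose/MgCl2/HEPES buffer with cysteine, NaF and BSA, started with ~3 micromolar 14C-isopentenyl pyrophosphate, 30 min at 30° C. Butanol-extractable radioactivity counted by scintillation; % residual activity calculated against zero-time and end-point no-inhibitor controls.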

The subject of test [8] is morningglory (Ipomoea spp.) (IPOSS). The experiment in a line: post-emergent herbicidal test, morningglory. The test is classed as in vivo. The conditions noted are these: Ipomoea, post-emergence, read-out: IPOSS percent control. A digest of the protocol: as §1
The mark [9] stands for this setting: post-emergent, 1.0 kg/ha (*), 17-21 days after application.
[10] abbreviates: post-emergent, 4.0 kg/ha, 17-21 days after application.

As a reminder, the IC50 is the point on the concentration scale where inhibition reaches its midpoint. Take `O=P(O)(O)C(CNCC(F)(F)F)P(=O)(O)O` [Compound 39]: the pest or weed control at 1000 g/ha is 0% in test [1] (setting [9]); 0% in test [2] (setting [9]); 20% in test [3] (setting [9]); 0% in test [4] (setting [9]); 5% in test [5] (setting [9]); 0% in test [6] (setting [9]). Also, the pest or weed control at 1000 g/ha in test [8] (setting [9]) worked out at 0%. The IC50 in test [7] (Table I) and in test [7] (Table II) was 380 nM in each case.
As for `CCCN(CCC(C)C)CC(P(=O)(O)O)P(=O)(O)O` [Compound 61], the pest or weed control at 1000 g/ha in test [1] (setting [9]) is 90%; in test [2] (setting [9]), 70%; in test [3] (setting [9]), 100%; in test [4] (setting [9]) it was 100%; in test [5] (setting [9]), 90%; in test [6] (setting [9]), 10%. In test [8] (setting [9]), the pest or weed control at 1000 g/ha worked out at 30%. For the same compound, the IC50 in test [7] (Table I) and in test [7] (Table II) was 1000 nM throughout.
Turning to `CCCN(CCC)CC(P(=O)(O)O)P(=O)(O)O` [Compound 19], the pest or weed control at 1000 g/ha was determined as 100% in test [1] (setting [9]); 100% in test [2] (setting [9]); 100% in test [3] (setting [9]); 100% in test [4] (setting [9]); 98% in test [5] (setting [9]); 10% in test [6] (setting [9]). The pest or weed control at 1000 g/ha in test [8] (setting [9]) worked out at 60%. Further, the IC50 in test [7] (Table I) and in test [7] (Table II) was 32 nM throughout.
Consider `O=P(O)(O)C(CNC1CCc2ccccc21)P(=O)(O)O` (stereo not drawn) [Compound 49], for which the pest or weed control at 1000 g/ha in test [1] (setting [9]) was found to be 10%; in test [2] (setting [9]), 5%; in test [3] (setting [9]), 60%; in test [4] (setting [9]), 50%; in test [5] (setting [9]), 15%; in test [6] (setting [9]), 10%. The pest or weed control at 1000 g/ha in test [8] (setting [9]) came out at 10%. Further, the IC50 in test [7] (Table I) and in test [7] (Table II) was 1730 nM throughout.
In the case of `O=P(O)(O)C(CN1CCCCC1)P(=O)(O)O` [Compound 1], the pest or weed control at 4000 g/ha was determined as 100% in test [1] (setting [10]); 70% in test [2] (setting [10]); 100% in test [3] (setting [10]); 100% in test [4] (setting [10]); 100% in test [5] (setting [10]); 20% in test [6] (setting [10]). In test [8] (setting [10]), the pest or weed control at 4000 g/ha is 100%. For the same compound, the IC50 in test [7] (Table I) and in test [7] (Table II) was 32 nM each time.
`O=P(O)(O)C(CNC1Cc2ccccc2C1)P(=O)(O)O` [Compound 46]: the pest or weed control at 1000 g/ha in test [1] (setting [9]) came out at 5%; in test [2] (setting [9]), 5%; in test [3] (setting [9]), 50%; in test [4] (setting [9]), 15%; in test [5] (setting [9]), 20%; in test [6] (setting [9]), 10%. The pest or weed control at 1000 g/ha in test [8] (setting [9]) amounted to 0%. For the same compound, the IC50 in test [7] (Table I) and in test [7] (Table II) was 440 nM throughout.
Regarding `CC1(C)CCCN(CC(P(=O)(O)O)P(=O)(O)O)C1` [Compound 47], the pest or weed control at 1000 g/ha in test [1] (setting [9]) stood at 5%; in test [2] (setting [9]), 0%; in test [3] (setting [9]), 0%; in test [4] (setting [9]), 0%; in test [5] (setting [9]), 10%; in test [6] (setting [9]), 0%. Moreover, the pest or weed control at 1000 g/ha in test [8] (setting [9]) was determined as 0%. Besides, the half-inhibitory concentration (IC50) in test [7] (Table I) and in test [7] (Table II) was 2280 nM throughout.
For `Cc1cccnc1NCC(P(=O)(O)O)P(=O)(O)O` [Compound 31], the pest or weed control at 4000 g/ha in test [1] (setting [10]), in test [2] (setting [10]), in test [3] (setting [10]), in test [4] (setting [10]), in test [5] (setting [10]) and in test [6] (setting [10]) was 0% in each case. In addition, in test [8] (setting [10]), the pest or weed control at 4000 g/ha worked out at 0%. The IC50 in test [7] (Table I) and in test [7] (Table II) was 6600 nM each time.
For `CN(C)CC(P(=O)(O)O)P(=O)(O)O` [Compound 8], the pest or weed control at 4000 g/ha in test [1] was found to be 85%; in test [2], 0%; in test [3] it was 5%; in test [4] it was 5%; in test [5] it was 50%; in test [6] it was 0%. Further, the pest or weed control at 4000 g/ha in test [8] worked out at 5%. The IC50 in test [7] (Table I) and in test [7] (Table II) was 2900 nM throughout.
As to `CCNCC(P(=O)(O)O)P(=O)(O)O` [Compound 20], the pest or weed control at 1000 g/ha came out at 10% in test [1]; 0% in test [2]; 40% in test [3]; 60% in test [4]; 50% in test [5]; 15% in test [6]. Also, the pest or weed control at 1000 g/ha in test [8] was determined as 0%. Further, the IC50 in test [7] (Table I) and in test [7] (Table II) was 150 nM throughout.
For `C=CCN(CC=C)CC(P(=O)(O)O)P(=O)(O)O` [Compound 37], the pest or weed control at 1000 g/ha in test [1] (setting [9]) turned out to be 98%; in test [2] (setting [9]), 10%; in test [3] (setting [9]), 95%; in test [4] (setting [9]), 95%; in test [5] (setting [9]) it was 100%; in test [6] (setting [9]), 10%. The pest or weed control at 1000 g/ha in test [8] (setting [9]) is 15%. In addition, the IC50 in test [7] (Table I) and in test [7] (Table II) was 53 nM each time.
As for `C=CCNCC(P(=O)(O)O)P(=O)(O)O` [Compound 18], the pest or weed control at 1000 g/ha is 100% in test [1]; 30% in test [2]; 100% in test [3]; 98% in test [4]; 98% in test [5]; 50% in test [6]. The pest or weed control at 1000 g/ha in test [8] is 70%. The IC50 in test [7] (Table I) and in test [7] (Table II) was 26 nM each time.
Consider `C=C(C)CNCC(P(=O)(O)O)P(=O)(O)O` [Compound 34], for which the pest or weed control at 1000 g/ha in test [1] (setting [9]) is 100%; in test [2] (setting [9]), 60%; in test [3] (setting [9]) it was 95%; in test [4] (setting [9]), 95%; in test [5] (setting [9]), 95%; in test [6] (setting [9]) it was 15%. Also, the pest or weed control at 1000 g/ha in test [8] (setting [9]) stood at 60%. Besides, the IC50 in test [7] (Table I) and in test [7] (Table II) was 31 nM each time.
Regarding `CONCC(P(=O)(O)O)P(=O)(O)O` [Compound 15], the pest or weed control at 1000 g/ha in test [1], in test [2], in test [3], in test [4], in test [5] and in test [6] was 0% each time. For the same compound, the pest or weed control at 1000 g/ha in test [8] came out at 0%. The IC50 in test [7] (Table I) and in test [7] (Table II) was 6310 nM each time.
As for `Cc1cnn(CC(P(=O)(O)O)P(=O)(O)O)c1` [Compound 60], the pest or weed control at 1000 g/ha in test [1] (setting [9]) was 20%; in test [2] (setting [9]), 10%; in test [3] (setting [9]), 10%; in test [4] (setting [9]), 30%; in test [5] (setting [9]), 30%; in test [6] (setting [9]), 0%. Further, the pest or weed control at 1000 g/ha in test [8] (setting [9]) came to 5%. For the same compound, the IC50 in test [7] (Table I) and in test [7] (Table II) was 1410 nM in each case.
